Earlier results on eight compounds are cited in PubChem BioAssay AID1259410 (Chemical Carcinogenesis Research Information System (CCRIS), 2018).

This series deals with rodent tumor promotion studies, tumor incidence. Briefly: CCRIS tumor promotion studies.

Turning to `C[C@H](CCC(=O)O)[C@H]1CC[C@H]2[C@@H]3CC[C@@H]4C[C@H](O)CC[C@]4(C)[C@H]3C[C@H](O)[C@]12C`, the outcome reads like this: (Carcinogen: AZOXYMETHANE, 25843-45-2, Doses [Carcinogen]: 7.4 MG/KG BW/WK FOR 5 WK, Doses [Promoter]: 0, 0.3% OF CHOW PELLETS FOR 45 WK BEGINNING FROM START OF ADMINISTRATION OF CARCINOGEN (STUDY DURATION: 45 WK), Route [Carcinogen]: SUBCUTANEOUS, Route [Promoter]: ORAL, Species: RAT, Strain/Sex: WISTAR/MALE) “colon: tumor”; (Carcinogen: DIETHYLNITROSAMINE, 55-18-5, 2-(ACETYLAMINO)FLUORENE, 6292-55-3, Carcinogen: DIETHYLNITROSAMINE, 55-18-5, 2-(ACETYLAMINO)FLUORENE, 6292-55-3, Doses [Carcinogen]: 200 MG/KG DEN FOLLOWED 2 WK LATER BY 0.03% 2AAF IN DIET FOR 2 WK PLUS 2 ML/KG CCL4 IN THE MIDDLE OF TREATMENT, Doses [Promoter]: 0.5% IN DIET BEGINNING 1 WK POST CARCINOGEN TREATMENT AND CONTINUING FOR DURATION OF TREATMENT (STUDY DURATION: 35 WK), Route [Carcinogen]: INTRAPERITONEAL, ORAL, Route [Promoter]: ORAL, Species: RAT, Strain/Sex: WISTAR/MALE) “liver: hepatocellular carcinoma or cholangiocarcinoma”; (Carcinogen: DIETHYLNITROSAMINE, 55-18-5, 2-ACETYLAMINO-FLUORENE, 53-96-3, CARBON TETRACHLORIDE, 56-23-5, Carcinogen: DIETHYLNITROSAMINE, 55-18-5, 2-ACETYLAMINO-FLUORENE, 53-96-3, CARBON TETRACHLORIDE, 56-23-5, Doses [Carcinogen]: 200 NMOL DEN ONCE FOLLOWED 2 WK LATER BY 0.03% 2AAF IN DIET PLUS 2 ML/MG CC14 IN THE MIDDLE OF 2AAF TREATMENT OF 3 WK, Doses [Promoter]: 0, 0.5% IN DIET BEGINNING POST CARCINOGEN TREATMENT AND CONTINUING FOR 30 WK (STUDY DURATION: 35 WK), Route [Carcinogen]: INTRAPERITONEAL, ORAL, Route [Carcinogen]: INTRAPERITONEAL, ORAL, Route [Promoter]: ORAL, Species: RAT, Strain/Sex: WISTAR/MALE) “liver: tumor”; (Carcinogen: N-METHYL-N-AMYLNITROSAMINE, 13256-07-0, Doses [Carcinogen]: 0.003% IN DRINKING WATER FOR 8 WK FOLLOWED BY TAP WATER FOR 20 WK, Doses [Promoter]: 0, 0.2% IN DIET BEGINNING POST CARCINOGEN TREATMENT AND CONTINUING FOR 20 WK (STUDY DURATION: 28 WK), Route [Carcinogen]: ORAL, Route [Promoter]: ORAL, Species: RAT, Strain/Sex: WISTAR/MALE) “esophagus: papilloma”; (Carcinogen: N-METHYL-N-AMYLNITROSAMINE, 13256-07-0, Doses [Carcinogen]: 0.003% IN DRINKING WATER FOR 8 WK FOLLOWED BY TAP WATER FOR 20 WK, Doses [Promoter]: 0, 0.2% IN DIET FOR 8 WK SIMULTANEOUSLY WITH CARCINOGEN TREATMENT (STUDY DURATION: 28 WK), Route [Carcinogen]: ORAL, Route [Promoter]: ORAL, Species: RAT, Strain/Sex: WISTAR/MALE) “esophagus: papilloma”; (Carcinogen: N-METHYL-N-AMYLNITROSAMINE, 13256-07-0, Doses [Carcinogen]: 0.003% IN DRINKING WATER FOR 8 WK FOLLOWED BY TAP WATER FOR 20 WK, Doses [Promoter]: 0, 0.2% IN DIET FOR DURATION OF STUDY (STUDY DURATION: 28 WK), Route [Carcinogen]: ORAL, Route [Promoter]: ORAL, Species: RAT, Strain/Sex: WISTAR/MALE) “esophagus: carcinoma, papilloma”. Besides, the outcome (Doses [Carcinogen]: IR, Route [Carcinogen]: RECTAL, Route [Promoter]: RECTAL, Species: RAT, Strain/Sex: FEMALE) is “colon”.
As for `O=C1c2cccc(O)c2C(=O)c2c(O)cccc21`, under “Carcinogen: 1,2-DIMETHYLHYDRAZINE, 540-73-8, Doses [Carcinogen]: 20 MG/KG BW 1/WK FOR 12 WK, Doses [Promoter]: 0, 0.2% IN DIET FOR 42 WK BEGINNING POST CARCINOGEN TREATMENT (STUDY DURATION: 54 WK), Route [Carcinogen]: SUBCUTANEOUS, Route [Promoter]: ORAL, Species: MOUSE, Strain/Sex: ICR/CD-1/MALE”, the outcome was “colon: tumor; liver: tumor”.
As to `S=C=NCCCCCCc1ccccc1`, the outcome runs as follows: (Carcinogen: AZOXYMETHANE, 25843-45-2, Doses [Carcinogen]: 15 MG/KG BW 1/WK FOR 2 WK, Doses [Promoter]: 0, 640 PPM IN DIET BEGINNING 2 WK PRIOR TO CARCINOGEN DOSE (STUDY DURATION: 56 WK), Route [Carcinogen]: SUBCUTANEOUS, Route [Promoter]: ORAL, Species: RAT, Strain/Sex: F344/MALE) “intestine: adenocarcinoma”; (Carcinogen: N-METHYL-N-BENZYLNITROSAMINE, 937-40-6, Doses [Carcinogen]: 0.5 MG/KG BW 1/WK FOR 15 WK, Doses [Promoter]: 0, 1, 2.5 UMOL/G DIET FOR DURATION OF STUDY BEGINNING 2 WK PRIOR TO CARCINOGEN TREATMENT (STUDY DURATION: 21 WK), Doses [Promoter]: 0, 1, 2.5 UMOL/G DIET FOR DURATION OF STUDY BEGINNING 2 WK PRIOR TO CARCINOGEN TREATMENT (STUDY DURATION: 21 WK), Route [Carcinogen]: SUBCUTANEOUS, Route [Promoter]: ORAL, Species: RAT, Strain/Sex: F344/MALE) “esophagus: tumor”.
Turning to `CC1=C(/C=C/C(C)=C/C=C/C(C)=C/C=C/C=C(C)/C=C/C=C(C)/C=C/C2=C(C)CCCC2(C)C)C(C)(C)CCC1`, the outcome is recorded as “lung - negative” (Carcinogen: 4-(N-METHYL-N-NITROSAMINO)-1-(3-PYRIDYL)-1-BUTANONE (NNK) [64091-91-4], Doses [Carcinogen]: 3.5 MG ON D 7, Doses [Promoter]: 0, 120, 600, 3000 PPM FROM START TO END AT 26 WKS (STUDY DURATION: 26 WKS), Doses [Promoter]: 0, 120, 600, 3000 PPM FROM START TO END AT 26 WKS (STUDY DURATION: 26 WKS), Route [Carcinogen]: IP INJECTION, Route [Promoter]: DIET, Species: MOUSE, Strain/Sex: A/J/MALE); “lung - negative” (Carcinogen: 4-(N-METHYL-N-NITROSAMINO)-1-(3-PYRIDYL)-1-BUTANONE (NNK) [64091-91-4], Doses [Carcinogen]: 3.5 MG ON D 15 (STUDY DURATION: 28 WKS), Doses [Promoter]: 600 PPM WKS 1 TO 3, WKS 6 TO 28 OR WKS 1 TO 28 (STUDY DURATION: 28 WKS), Route [Carcinogen]: IP INJECTION, Route [Promoter]: DIET, Species: MOUSE, Strain/Sex: A/J/MALE); “lung - negative” (Carcinogen: 4-(N-METHYL-N-NITROSAMINO)-1-(3-PYRIDYL)-1-BUTANONE (NNK) [64091-91-4], Doses [Carcinogen]: 5 MG ON D 28, Doses [Promoter]: 600 PPM FROM START TO WK 5, WK 3 TO 8, WKS 8 TO 24 OR FOR 24 WKS (STUDY DURATION: 24 WKS), Route [Carcinogen]: IP INJECTION, Route [Promoter]: DIET, Species: MOUSE, Strain/Sex: A/J/MALE).
As for `CNCCCN1c2ccccc2CCc2ccccc21`, under “Carcinogen: AZOXYMETHANE, 25843-45-2, Doses [Carcinogen]: 7.4 MG/KG BW IN 0.9% SALINE 1/WK FOR 10 WK, Doses [Promoter]: 0, 10 MG/KG BW IN 0.9% SALINE 1/2 D FOR 10 WK ON SAME DAY AS CARCINOGEN ADMINISTRATION (STUDY DURATION: 35 WK), Route [Carcinogen]: SUBCUTANEOUS, Route [Promoter]: SUBCUTANEOUS, Species: RAT, Strain/Sex: WISTAR/MALE”, the outcome is recorded as “colon: tumor”.
As for `CCCC1(CCCCCCCCCCCC(=O)OC2C(C)C3(O)C(C=C(CO)CC4(O)C(=O)C(C)=CC43)C3C(C)(C)C23OC(C)=O)OCC(C)(C)N1[O]` (configuration not stated), the outcome (Carcinogen: 7,12-DIMETHYLBENZ[A]ANTHRACENE, 57-97-6, Doses [Carcinogen]: 100 NMOL ONCE, Doses [Promoter]: 0, 20 NMOL 2/WK FOR 24 WK BEGINNING 1 WK POST CARCINOGEN DOSE (STUDY DURATION: 25 WK), Route [Carcinogen]: DERMAL, Route [Promoter]: DERMAL, Species: MOUSE, Strain/Sex: NMRI/FEMALE) was “skin: tumor”.
Consider `C=C(C)[C@]12C[C@@H](C)[C@@]34O[C@](CCCCCCCCC)(O[C@@H]1[C@@H]3[C@@H]1O[C@]1(CO)[C@@H](O)[C@]1(O)C(=O)C(C)=C[C@H]14)O2`, for which the outcome (Carcinogen: 7,12-DIMETHYLBENZ(A)ANTHRACENE, Doses [Carcinogen]: 100 NMOL ONCE, Doses [Promoter]: 10, 20 NMOL 2/WK FOR 24 WK, Route [Carcinogen]: DERMAL, Route [Promoter]: DERMAL, Species: MOUSE, Strain/Sex: NMRI/FEMALE) was “integumentary system (skin): tumor (nos)”.
For the compound `COc1cccc(O)c1O`, the outcome (Carcinogen: DIETHYLNITROSAMINE, 55-18-5, N-METHYL-N-NITROSOUREA, 684-93-5, 1,2-DIMETHYLHYDRAZINE, 540-73-8, N-BUTYL-N-(4-HYDRO, Carcinogen: DIETHYLNITROSAMINE, 55-18-5, N-METHYL-N-NITROSOUREA, 684-93-5, 1,2-DIMETHYLHYDRAZINE, 540-73-8, N-BUTYL-N-(4-HYDRO, Doses [Carcinogen]: 100 MG/KG BW DEN ONCE THEN 20 MG/KG BW MNU 1/D FOR 4 D FOLLOWED BY 40 MG/KG BW DMH 1/D FOR 4 D, 0.05% BHBN IN DRINKING W, Doses [Promoter]: 0, 2% IN DIET FOR 24 WK BEGINNING 3 D POST CARCINOGEN TREATMENT (STUDY DURATION: 28 WK), Route [Carcinogen]: INTRAPERITONEAL, INTRAPERITONEAL, SUBCUTANEOUS, ORAL, Route [Carcinogen]: INTRAPERITONEAL, INTRAPERITONEAL, SUBCUTANEOUS, ORAL, Route [Promoter]: ORAL, Species: RAT, Strain/Sex: F344/MALE) was “forestomach: papilloma, squamous cell carcinoma or carcinoma in situ; glandular”.
